From US20100137222A1, “Basic Peptides and Their Use as Combined Antibacterial-Antifungine Agents” (NOVABIOTICS LIMITED, priority 2007, published 2010)
Read-outs that look alike come from different tables or passages of the source. Marks after values point to notes of the source that are not given here. No end group written: not given here.

Tests used:
P. acnes DSM1897 = assay type: cell-based, Propionibacterium acnes
Experimental: Broth Dilution Antibacterial Susceptibility Testing
The sensitivity of relevant bacterial strains to peptides was determined using Clinical Laboratory Standard Institute (CLSI; formerly NCCLS) Approved Standards. Bacterial susceptibility was tested using “Methods for Dilution Antimicrobial Susceptibility Tests for Bacteria That Grow […]; Approved Standard—Seventh Edition M7-A7”

M. furfur DSM6170 = assay type: cell-based, Malassezia furfur
Experimental: Broth Dilution Antifungal Susceptibility Testing
The sensitivity of relevant fungal strains to peptides was determined using Clinical Laboratory Standard Institute (CLSI; formerly NCCLS) Approved Standards. Yeast susceptibility was tested using “Reference Method for Broth Dilution Antifungal Susceptibility Testing of Yeasts; Approved Standard—Second Edition M27-A”.

[1] = Table 3, starred values (*value in mg/ml)
[2] = Table 1, starred values (*value in mM)

Row | Compound | Antimicrobial Activity (MIC) P. acnes DSM1897 (P. acnes DSM1897; DSM1897) | also measured
1 | N=C(N)NCCC[C@H](NC(=O)[C@H](CCCNC(=N)N)NC(=O)[C@H](CCCNC(=N)N)NC(=O)[C@H](CCCNC(=N)N)NC(=O)[C@H](CCCNC(=N)N)NC(=O)[C@H](CCCNC(=N)N)NC(=O)[C@H](CCCNC(=N)N)NC(=O)[C@H](CCCNC(=N)N)NC(=O)[C@H](CCCNC(=N)N)NC(=O)[C@H](CCCNC(=N)N)NC(=O)[C@@H](N)CCCNC(=N)N)C(=O)O [NP317] | <0.0156 mM | Antimicrobial Activity (MIC) M. furfur DSM6170 (M. furfur DSM6170; DSM6170): <0.0156 mM; MIC against Malassezia furfur DSM6170 (M. furfur DSM6170; Table 3, unstarred values): <0.0156 mM
2 | N=C(N)NCCC[C@H](NC(=O)[C@H](CCCNC(=N)N)NC(=O)[C@H](CCCNC(=N)N)NC(=O)[C@H](CCCNC(=N)N)NC(=O)[C@H](CCCNC(=N)N)NC(=O)[C@H](CCCNC(=N)N)NC(=O)[C@H](CCCNC(=N)N)NC(=O)[C@H](CCCNC(=N)N)NC(=O)[C@H](CCCNC(=N)N)NC(=O)[C@H](CCCNC(=N)N)NC(=O)[C@H](CCCNC(=N)N)NC(=O)[C@H](CCCNC(=N)N)NC(=O)[C@@H](N)CCCNC(=N)N)C(=O)O [NP337] | 0.0025 mM | Antimicrobial Activity (MIC) M. furfur DSM6170 (M. furfur DSM6170; DSM6170): 0.03125 mM
3 | CC(=O)N[C@@H](CCCNC(=N)N)C(=O)N[C@@H](CCCNC(=N)N)C(=O)N[C@@H](CCCNC(=N)N)C(=O)N[C@@H](CCCNC(=N)N)C(=O)N[C@@H](CCCNC(=N)N)C(=O)N[C@@H](CCCNC(=N)N)C(=O)N[C@@H](CCCNC(=N)N)C(=O)N[C@@H](CCCNC(=N)N)C(=O)N[C@@H](CCCNC(=N)N)C(=O)N[C@@H](CCCNC(=N)N)C(=O)N[C@@H](CCCNC(=N)N)C(=O)N[C@@H](CCCNC(=N)N)C(=O)N[C@@H](CCCNC(=N)N)C(N)=O [NP338] | 0.005 mM | Antimicrobial Activity (MIC) M. furfur DSM6170 (M. furfur DSM6170; DSM6170): <0.0156 mM; MIC against Malassezia furfur DSM6170 (M. furfur DSM6170; Table 3, unstarred values): <0.0156 mM
4 | N=C(N)NCCC[C@@H](N)C(=O)N[C@H](CCCNC(=N)N)C(=O)N[C@H](CCCNC(=N)N)C(=O)N[C@H](CCCNC(=N)N)C(=O)N[C@H](CCCNC(=N)N)C(=O)N[C@H](CCCNC(=N)N)C(=O)N[C@H](CCCNC(=N)N)C(=O)N[C@H](CCCNC(=N)N)C(=O)N[C@H](CCCNC(=N)N)C(=O)N[C@H](CCCNC(=N)N)C(=O)N[C@H](CCCNC(=N)N)C(=O)N[C@H](CCCNC(=N)N)C(=O)N[C@H](CCCNC(=N)N)C(=O)O [NP339, dRdRdRdRdRdRdRdRdRdRdRdRdR] | 0.02 mM | Antimicrobial Activity (MIC) M. furfur DSM6170 (M. furfur DSM6170; DSM6170): 0.008 mM
5 | CC(=O)N[C@H](CCCNC(=N)N)C(=O)N[C@H](CCCNC(=N)N)C(=O)N[C@H](CCCNC(=N)N)C(=O)N[C@H](CCCNC(=N)N)C(=O)N[C@H](CCCNC(=N)N)C(=O)N[C@H](CCCNC(=N)N)C(=O)N[C@H](CCCNC(=N)N)C(=O)N[C@H](CCCNC(=N)N)C(=O)N[C@H](CCCNC(=N)N)C(=O)N[C@H](CCCNC(=N)N)C(=O)N[C@H](CCCNC(=N)N)C(=O)N[C@H](CCCNC(=N)N)C(=O)N[C@H](CCCNC(=N)N)C(N)=O [NP340, Ac-dRdRdRdRdRdRdRdRdRdRdRdRdR-NH2] | 0.02 mM | Antimicrobial Activity (MIC) M. furfur DSM6170 (M. furfur DSM6170; DSM6170): 0.008 mM
6 | (H)n, n = 32-161, HCl salt (5-25 kDa) [NP131] | – | MIC against Malassezia furfur DSM6170 (M. furfur DSM6170; [1]): 0.0625* mg/ml
7 | (H)n, n = >32, HCl salt (>5 kDa) [NP132] | – | MIC against Malassezia furfur DSM6170 (M. furfur DSM6170; [1]): 0.0625* mg/ml
8 | (I-K)n, n = 7-27, HBr salt [NP106] | – | Antimicrobial Activity (MIC) P. acnes DSM1897 (P. acnes DSM1897; Table 1, unstarred values): 0.125 mg/mL; Antimicrobial Activity (MIC) M. furfur DSM6170 (M. furfur DSM6170; Table 1, unstarred values): 0.5 mg/mL
9 | (I-K)n, n = 100-200, HCl salt [NP101] | – | Antimicrobial Activity (MIC) P. acnes DSM1897 (P. acnes DSM1897; Table 1, unstarred values): 0.1 mg/mL
10 | (R)n, n = 28-86, HCl salt (5-15 kDa) [NP121] | – | MIC against Malassezia furfur DSM6170 (M. furfur DSM6170; [1]): 0.25* mg/ml
11 | (R)n, n = 86-402, HCl salt (15-70 kDa) [NP122] | – | MIC against Malassezia furfur DSM6170 (M. furfur DSM6170; [1]): 0.25* mg/ml
12 | GKKEKPEKKVKK [NP331] | >2 mM | –
13 | KKKDKVKK [NP334] | >2 mM | –
14 | KKKKK [NP343, KKKKK] | >10* mM | –
15 | KKKKKEGKKQEKMLD [NP333] | >2 mM | –
16 | KKKKKKK [NP344, KKKKKKK] | >10* mM | Antimicrobial Activity (MIC) M. furfur DSM6170 (M. furfur DSM6170; DSM6170): 1* mM
17 | KKKKKKKKK [NP345] | 2.5* mM | –
18 | KKKKKKKKKKKKKKK [NP348] | – | Antimicrobial Activity (MIC) P. acnes DSM1897 (P. acnes DSM1897; [2]): 0.0625* mM; Antimicrobial Activity (MIC) M. furfur DSM6170 (M. furfur DSM6170; [2]): 0.25* mM
19 | KLTKPKPQAESKKKKK [NP332] | >2 mM | –
20 | KVRQGTLKKAR [NP335] | >2 mM | –
21 | PKTKAKAKAKKGKGKD [NP336] | >2 mM | –

Row | Compound | Antimicrobial Activity (MIC) P. acnes DSM1897 (P. acnes DSM1897; DSM1897) | also measured
22 | RRRRVVRRRR [NP310] | 0.5 mM | Antimicrobial Activity (MIC) M. furfur DSM6170 (M. furfur DSM6170; DSM6170): 0.5 mM; MIC against Malassezia furfur DSM6170 (M. furfur DSM6170; Table 3, unstarred values): 0.5 mM
23 | RRRVRRR [NP306, RRRVRRR] | 2 mM | –
24 | RRRVVRRR [NP308] | >2 mM | –
25 | RRRWRRR [NP325, RRRWRRR] | 2 mM | –
26 | RRRWWRRR [NP327] | 0.125 mM | –
27 | RRVRR [NP303, RRVRR] | >2 mM | –
28 | RRVRRVRR [NP309] | 1 mM | –
29 | RRVRVR [NP304, RRVRVR] | >2 mM | –
30 | RRVRVRR [NP307, RRVRVRR] | >2 mM | –
31 | RRVVR [NP302, RRVVR] | >2 mM | –
32 | RRVVRR [NP305, RRVVRR] | >2 mM | –
33 | RRVVRRVVRR [NP311] | 2 mM | –
34 | RRWRR [NP322, RRWRR] | 2 mM | –
35 | RRWRRWRR [NP328] | 0.5 mM | –
36 | RRWRWR [NP323, RRWRWR] | 0.5 mM | –
37 | RRWRWRR [NP326, RRWRWRR] | 0.25 mM | –
38 | RRWWR [NP321, RRWWR] | 1 mM | –
39 | RRWWRR [NP324, RRWWRR] | 0.25 mM | –
40 | RVRVR [NP301, RVRVR] | >2 mM | –
41 | RWRWR [NP320, RWRWR] | 1 mM | –
